Patent publication US20230089557A1, “METHODS OF TREATING DLBCL USING BTK INHIBITORS AND COMBINATIONS THEREOF” (BEIGENE SWITZERLAND GMBH, priority 2020, published 2023)

Tests used:
[1] = tested on: DLBCL patient-derived xenografted (PDX) models; assay: Compound 1 efficacy (TGI) in DLBCL PDX models, GCB vs non-GCB; assay type: in vivo, mice; settings: p.o. 7.5 mg/kg BID
Text: DLBCL patient-derived xenografted (PDX) models were established in immunodeficient NCG (NOD-Prkdcem26Cd52Il2rgem26Cd22/NjuCrl) mice. These models were classified into GCB and non-GCB subgroups based on immunohistochemistry (IHC) staining using Hans algorithm (Hans, C. P., et al., Blood, 2004. 103 (1): p. 275-282). For efficacy studies, tumor tissues were inoculated subcutaneously into NCG mice. When tumors reached 100-200 mm^3, mice were randomized into each group with 7-10 mice/group based on tumor volume. Compound 1 was formulated with 0.5% methyl cellulose as vehicle and treatment was started on the day of randomized grouping. Compound 1 was administrated p.o., 7.5 mg/(kg body weight), BID. Tumor volumes were measured twice weekly in two dimensions using a caliper, and the volume were expressed in mm^3 using the formula:
V=0.5(a×b^2) where a and b are the long and short diameters of the tumor, respectively.
Tumor growth inhibition (TGI) was calculated using the following formula:
% TGI=100×[1−(treatmentvt−treatmentv0)/(vehiclevt−Vehiclev0)]
Treatmentvt=tumor volume of treatment group at time t.
treatmentv0=tumor volume of treatment group at time of treatment started.
Vehiclevt=tumor volume of vehicle group at time t.
Vehiclev0=tumor volume of vehicle group at time of treatment started.
P value was calculated using two tails t test.

[2] = tested on: R/R non-GCB DLBCL; assay: Compound 1 monotherapy in patients with R/R non-GCB DLBCL; assay type: in vivo, human
Protocol: A total of 121 patients with R/R non-GCB DLBCL were recruited in four Compound 1 treatment studies that were conducted at a similar time period. Two of the four studies were Compound 1 monotherapy (n=79) and two were Compound 1 combined with an anti-CD20 antibody therapy (n=42). Similar inclusion and exclusion criteria and response evaluation criteria were used across all studies. Fifty-six non-GCB patients were further subtyped by gene expression profiling (GEP) using the HTG EdgeSeq DLBCL Cell of Origin Assay. The expression of approximately 90 lymphoma-associated genes from the HTG GEP assay were analyzed by R package limma for correlation with response to Compound 1 treatment. Seventy-seven patient samples were tested by next-generation sequencing (NGS) with a panel of genes. Chi-square test was used to evaluate the correlation between mutations and the objective response rate (ORR).
Monotherapy schedule 1: Compound 1 was administered orally every day at 160 mg twice daily (BID) in 28-day cycles in patients with R/R non-GCB DLBCL.
Monotherapy schedule 2: Compound 1 was administered orally every day in each cycle at 160 mg BID in 28-day cycles in patients with R/R non-GCB DLBCL.
79 patients with non-GCB DLBCL were subjected to Compound 1 monotherapies (Monotherapy Schedule 1 or 2).

[3] = monotherapy 160 BID Schedule 1, ABC Subtype of DLBCL Patients
[4] = monotherapy 160 BID Schedule 1, CD79B ITAM_Mut
[5] = monotherapy 160 BID Schedule 1, CD79B ITAM_WT
[6] = monotherapy 160 BID Schedule 1, CD79B_Mut
[7] = monotherapy 160 BID Schedule 1, CD79B_WT
[8] = monotherapy 160 BID Schedule 1, MYD88_L265P
[9] = monotherapy 160 BID Schedule 1, MYD88_WT
[10] = monotherapy 160 BID Schedule 1, NOTCH1_Mut
[11] = monotherapy 160 BID Schedule 1, NOTCH1_WT
[12] = monotherapy 160 BID Schedule 1, Non-GCB DLBCL Patients
[13] = monotherapy 160 BID Schedule 1, Non-GCB DLBCL Patients with Sequence Available
[14] = monotherapy 160 BID Schedule 1, Patients with Sequence Available
[15] = monotherapy 160 BID Schedule 2, ABC Subtype of DLBCL Patients
[16] = monotherapy 160 BID Schedule 2, CD79B ITAM_Mut
[17] = monotherapy 160 BID Schedule 2, CD79B ITAM_WT
[18] = monotherapy 160 BID Schedule 2, CD79B_Mut
[19] = monotherapy 160 BID Schedule 2, CD79B_WT
[20] = monotherapy 160 BID Schedule 2, MYD88_L265P
[21] = monotherapy 160 BID Schedule 2, MYD88_L265P/CD79B_Mut

With C=CC(=O)N1CCC([C@@H]2CCNc3c(C(N)=O)c(-c4ccc(Oc5ccccc5)cc4)nn32)CC1 [Compound 1, (S)-7-(1-acryloylpiperidin-4-yl)-2-(4-phenoxyphenyl)-4,5,6,7-tetra-hydropyrazolo[1,5-a]pyrimidine-3-carboxamide] the “TGI (mean±SD)” value ([1]; GCB subtype PDX models) was 25.5±11.96%, the “TGI (mean±SD)” value ([1]; non-GCB DLBCL PDX models) was 63.60±42.92% and the ORR ([2]; GEP-confirmed activated B-cell DLBCL, first of the two monotherapies (Schedule 1)) was 53.8%. The ORR ([2]; GEP-confirmed activated B-cell DLBCL, second of the two monotherapies (Schedule 2)) was 36%, the ORR [2, 3] was 53.8 and the Response/Patient [2, 3] was 7/13. The ORR [2, 4] was 100.0, the Response/Patient [2, 4] was 2/2 and the “Difference in ORR (95% CI)” value ([2]; monotherapy 160 BID Schedule 1, CD79B ITAM_Mut vs CD79B ITAM_WT) was 50.0. For the same compound, the ORR [2, 5] was 50.0, the Response/Patient [2, 5] was 4/8 and the ORR [2, 6] was 75.0. The Response/Patient [2, 6] was 3/4, the “Difference in ORR (95% CI)” value ([2]; monotherapy 160 BID Schedule 1, CD79B_Mut vs CD79B_WT) was 25.0 and the ORR [2, 7] was 50.0. For the same compound, the Response/Patient [2, 7] was 3/6, the ORR [2, 8] was 0.0 and the Response/Patient [2, 8] was 0/1. For the same compound, the “Difference in ORR (95% CI)” value ([2]; monotherapy 160 BID Schedule 1, MYD88_L265P vs MYD88_WT) was −66.7, the ORR [2, 9] was 66.7 and the Response/Patient [2, 9] was 6/9. For the same compound, the ORR [2, 10] was 100.0, the Response/Patient [2, 10] was 1/1 and the “Difference in ORR (95% CI)” value ([2]; monotherapy 160 BID Schedule 1, NOTCH1_Mut vs NOTCH1_WT) was 44.4. The ORR [2, 11] was 55.6, the Response/Patient [2, 11] was 5/9 and the ORR [2, 12] was 31.6. For the same compound, the Response/Patient [2, 12] was 12/38, the ORR [2, 13] was 60.0 and the Response/Patient [2, 13] was 6/10. The ORR ([2]; monotherapy 160 BID Schedule 1, Other (not MYD88_L265P/CD79B_Mut)) was 60.0, the ORR [2, 14] was 63.6 and the Response/Patient [2, 14] was 7/11. For the same compound, the ORR [2, 15] was 36.0, the Response/Patients [2, 15] was 9/25 and the ORR [2, 16] was 46.2. For the same compound, the Response/Patients [2, 16] was 6/13, the “Difference in ORR (95% CI)” value ([2]; monotherapy 160 BID Schedule 2, CD79B ITAM_Mut vs CD79B ITAM_WT) was 17.6 and the ORR [2, 17] was 28.6. For the same compound, the Response/Patients [2, 17] was 6/21, the ORR [2, 18] was 46.2 and the Response/Patients [2, 18] was 6/13. For the same compound, the “Difference in ORR (95% CI)” value ([2]; monotherapy 160 BID Schedule 2, CD79B_Mut vs CD79B_WT) was 17.6, the ORR [2, 19] was 28.6 and the Response/Patients [2, 19] was 6/21. The ORR [2, 20] was 40.0, the Response/Patients [2, 20] was 4/10 and the “Difference in ORR (95% CI)” value ([2]; monotherapy 160 BID Schedule 2, MYD88_L265P vs MYD88_WT) was 6.7. The ORR [2, 21] was 50.0, the Response/Patients [2, 21] was 3/6 and the “Difference in ORR (95% CI)” value ([2]; monotherapy 160 BID Schedule 2, MYD88_L265P/CD79B_Mut vs Other) was 17.9. The ORR ([2]; monotherapy 160 BID Schedule 2, MYD88_WT) was 33.3.
